Results published in ChEMBL document CHEMBL1133373, “Chemical and enzymatic modifications of integric acid and HIV-1 integrase inhibitory activity” (Bioorg Med Chem Lett, 2000).
Activity calls are given as the source filed them. The rule behind the calls is not given here.

What was measured:
[1] = biological target: Human immunodeficiency virus type 1 integrase (Human immunodeficiency virus 1) (UniProt Q7ZJM1); test: Activity against HIV-1 integrase in range 5-20 uM compared to integric acid.
[2] = biological target: Human immunodeficiency virus type 1 integrase (Human immunodeficiency virus 1, UniProt Q7ZJM1); test: Inhibitory activity against HIV-1 integrase
Human immunodeficiency virus type 1 integrase, sequence (Q7ZJM1 whole entry): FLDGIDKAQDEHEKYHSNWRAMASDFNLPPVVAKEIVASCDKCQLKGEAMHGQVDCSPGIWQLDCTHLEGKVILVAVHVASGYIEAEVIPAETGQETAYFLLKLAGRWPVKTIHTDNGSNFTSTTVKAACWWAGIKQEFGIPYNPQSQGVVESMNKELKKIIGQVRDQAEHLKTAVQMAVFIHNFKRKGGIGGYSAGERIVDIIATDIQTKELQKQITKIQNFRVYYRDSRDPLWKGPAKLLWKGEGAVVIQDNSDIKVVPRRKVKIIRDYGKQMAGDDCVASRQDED

[3] = biological target: Human immunodeficiency virus type 1 integrase (Human immunodeficiency virus 1) (UniProt Q7ZJM1); test: Compound was tested for strand transfer activity against HIV-1 integrase at 50 uM; weak inhibition

Human immunodeficiency virus type 1 integrase (Human immunodeficiency virus 1), sequence (Q7ZJM1 as listed by the source): as the sequence (Q7ZJM1 whole entry) above

Compound	Activity [1]	IC50 [2] [µM]	Activity [3]
C=C(C=O)[C@@H]1C[C@@]2(C)C(=CC1=O)[C@H](OC(=O)/C(C)=C/C(C)CCCC)CC[C@@H]2C(=O)N[C@@H](CC(C)C)C(=O)OC (stereo not given in full)	Active	3	–
CCCCC(C)/C=C(\C)C(=O)O[C@@H]1CC[C@H](C(=O)O)[C@@]2(C)C[C@H]3[C@H](C)CO[C@]3(O)C[C@H]12 (stereo not given in full)	–	100	–
C=C(C=O)[C@@H]1C[C@@]2(C)C(=CC1=O)[C@H](OC(=O)/C(C)=C/C(C)CCCC)CC[C@@H]2C(=O)O/C(=N\C1CCCCC1)NC1CCCCC1 (stereo not given in full)	–	88	–
C=C(C=O)[C@@H]1C[C@@]2(C)C(=CC1=O)[C@H](OC(=O)/C(C)=C/C(C)CCCC)CC[C@@H]2C(=O)OP(=O)(OCC)OCC (stereo not given in full)	–	81	–
C=C(C=O)[C@@H]1C[C@@]2(C)C(=CC1=O)[C@H](OC(=O)/C(C)=C/C(C)CCCC)CC[C@@H]2C(=O)NCCNC(=O)[C@H]1CC[C@@H](OC(=O)/C(C)=C/C(C)CCCC)C2=CC(=O)[C@H](C(=C)C=O)C[C@@]21C (stereo not given in full)	Active	10	–
C=C(C=O)[C@@H]1C[C@@]2(C)C(=CC1=O)[C@H](OC(=O)/C(C)=C/C(C)CCCC)CC[C@@H]2C(=O)N1CCN(C(=O)[C@H]2CC[C@@H](OC(=O)/C(C)=C/C(C)CCCC)C3=CC(=O)[C@H](C(=C)C=O)C[C@@]32C)CC1 (stereo not given in full)	Active	24	–
C=C(C=O)[C@@H]1C[C@@]2(C)C(=CC1=O)[C@H](OC(=O)/C(C)=C/C(C)CCCC)CC[C@@H]2C(=O)ON[C@H](C(=O)OC)c1ccccc1 (stereo not given in full)	Active	5	–
CCCCC(C)/C=C(\C)C(=O)O[C@@H]1CC[C@H](C(=O)O)[C@@]2(C)CC3C(C)C(O)OC3(O)C=C12 (stereo not given in full)	–	40	–
C=C(C=O)[C@@H]1C[C@@]2(C)C(=CC1=O)[C@H](OC(=O)/C(C)=C/C(C)CCCC)CC[C@@H]2C(=O)ON[C@@H](C(=O)OC)c1ccccc1 (stereo not given in full)	Active	5	–
CCCCC(C)/C=C(\C)C(=O)O[C@@H]1CC[C@H](C(=O)O)[C@@]2(C)C[C@H]3[C@@H](C)CO[C@]3(O)C[C@H]12 (stereo not given in full)	–	45	–
CC1=C2C[C@@]3(C)C(=CCC[C@@H]3C(=O)O)C=C2OC1=O	–	> 100	–
CCCCC(C)/C=C(\C)C(=O)O (stereo not given)	Active	12	–

More lines, now with the values ahead:

Activity [1]	IC50 [2] [µM]	Activity [3]	Compound
Active	3	–	C=C(C=O)[C@@H]1C[C@@]2(C)C(=CC1=O)[C@H](OC(=O)/C(C)=C/C(C)CCCC)CC[C@@H]2C(=O)O (stereo not given in full)
Active	11	weak inhibition	CCCCC(C)/C=C(\C)C(=O)O[C@@H]1CC[C@H](C(=O)O)[C@@]2(C)C[C@@H]([C@H](C)C=O)C(=O)C=C12 (stereo not given in full)
–	30	–	C=CC(=C)[C@@H]1C[C@@]2(C)C(=CC1=O)[C@H](OC(=O)/C(C)=C/C(C)CCCC)CC[C@@H]2C(=O)O (stereo not given in full)
–	40	–	CCCCC(C)/C=C(\C)C(=O)O[C@@H]1CC[C@H](C(=O)O)[C@@]2(C)C[C@@H](C(C)C(O)O)C(=O)C=C12 (stereo not given in full)
–	75	–	C=C/C(C)=C1\C[C@@]2(C)C(=CC1=O)[C@H](OC(=O)/C(C)=C/C(C)CCCC)CC[C@@H]2C(=O)O (stereo not given in full)
Active	11	weak inhibition	CCCCC(C)/C=C(\C)C(=O)O[C@@H]1CC[C@H](C(=O)O)[C@@]2(C)CC([C@@H](C)C=O)C(=O)C=C12 (stereo not given in full)
–	73	–	C=C(CO)[C@@H]1C[C@@]2(C)C(=C[C@H]1O)[C@H](OC(=O)/C(C)=C/C(C)CCCC)CC[C@@H]2C(=O)O (stereo not given in full)
